Results taken from paper PMC8467962, “Design and Synthesis of Water-Soluble and Potent MMP-13 Inhibitors with Activity in Human Osteosarcoma Cells” (International Journal of Molecular Sciences, 2021).
Converted amounts (≈) assume the structure as drawn. Where two headings read alike, the source gives them in different places.

How the values were obtained:
[1] = molecular target: commercially available MMP-13 active protein (Homo sapiens, UniProt P45452); assay: Enzymatic activity of commercial MMP-13, dose response of BiPS; assay type: biochemical
Source text: (§1) Figure S5. PyMOL stick and cartoon representation of the bidentate interaction established by the hydroxamate and the catalytic Zinc ion in both MMP-13 (left) and MMP-2 (right). Hydrogen bonds are shown in dashed lines, the catalytic zinc ion is shown as grey sphere. For the sake of clarity, no hydrogens are shown.
(§2) Figure S6. SDS-PAGE analysis of the recombinantly expressed catalytic dom ain of MMP-13 purified by metal affinity chromatography. M corresponds to the molecular weight markers ( k D a ) . […]
(§3) Log(BiPS [M]) Log(BiPS [M])
(§4) Figure S7. Dose response curve used to determine IC50 of BiPS for A) recombinantly expressed catalytic domain of MMP-13, and B) commercially available MMP-13 active protein. […]

MMP-13 catalytic domain = MMP-13 catalytic domain (Homo sapiens, UniProt P45452); assay: WaterLOGSY NMR experiment; conditions: 5 μM protein, 0.15 mM ligand, 25 °C
[2] = molecular target: T1, recombinantly expressed catalytic domain of MMP-13 (Homo sapiens, UniProt P45452); assay: Enzymatic activity of recombinantly expressed MMP-13 catalytic domain, dose response of BiPS; assay type: biochemical; conditions: recombinantly expressed catalytic domain of MMP-13, after refolding
T1 construct: containing the catalytic site (amino acid residues −104 to 274); TEV cleavage site (C); 6xHis (C); made in house; host or cells: Escherichia coli BL21-DE3 pLys S
Source text: To this end, a recombinantly expressed catalytic domain of MMP-13 was purified under denaturing conditions (Figure S6); the process lead to a very pure sample preparation.
as §1, §2, §3, §4

MMP-2 [3] = molecular target: T2, MMP-2 (Homo sapiens, UniProt P08253); design: method as in PMID 30629065; conditions: previous work; read-out: MMP-2 IC50; cited from earlier work
T2 construct: the catalytic domains of the corresponding MMP were incubated in triplicate; purchased Enzo Life Science International, Inc
T2 sequence (P08253 110-446 limits assumed): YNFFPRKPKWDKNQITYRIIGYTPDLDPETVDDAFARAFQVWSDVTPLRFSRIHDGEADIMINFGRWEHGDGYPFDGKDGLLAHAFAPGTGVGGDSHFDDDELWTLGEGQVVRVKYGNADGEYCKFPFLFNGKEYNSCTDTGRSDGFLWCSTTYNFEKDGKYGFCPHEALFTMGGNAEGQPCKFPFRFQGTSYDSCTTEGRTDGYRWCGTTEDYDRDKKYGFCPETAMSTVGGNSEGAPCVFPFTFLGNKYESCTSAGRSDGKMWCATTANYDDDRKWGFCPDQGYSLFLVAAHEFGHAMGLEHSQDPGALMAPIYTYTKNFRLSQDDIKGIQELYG

[4] = Thermodynamic solubility (shake flask method); assay type: physicochemical; conditions: phosphate buffer, aqueous buffer, thermodynamic from solid; PBS pH 7.4, shake flask, room temperature; read-out: Experimental Water Solubility LogS (converted)
Description: The samples were sonicated for 10 min and shaken overnight at 800 rpm (FB15013 TopMix, Fischer Scientific, Waltham, MA, USA) at room temperature. A first phase separation of supernatant and undissolved solid was performed by centrifugation at 5000 rpm for 20 min (Biofuge primo R). The supernatant was then transferred into Eppendorf tubes for a second centrifugation. An adequate dilution was made using the particle-free supernatant and the concentration quantified by LC-HRMS using a 4-point calibration curve (Agilent 1260 Infinity II).
PART A. Calibration curves of compounds for solubility
9e, 10a-e), 4-points calibration curves were made for each compound. Calibrations curves were obtained using four different concentrations of the corresponding compound (0.1 mg/mL, 0.01 mg/mL, 0.001 mg/mL and 0.0001 mg/mL). All samples were prepared in DMSO and measured in a LC-HRMS (Agilent 1260 Infinity II).
Figure S1. Calibration curves of all active compounds (solubility studies) (1, 2, 9a, 9e, 10a-e) […]

MMP-1 = molecular target: T3, MMP-1 (Homo sapiens, UniProt P03956); assay: MMP inhibition assay (MMP Inhibitor Profiling Kit, thiopeptide substrate), MMP-1; assay type: biochemical; conditions: panel of MMPs
T3 construct: the catalytic domains of the corresponding MMP were incubated in triplicate; purchased Enzo Life Science International, Inc
T3 sequence (P03956 100-269 limits assumed): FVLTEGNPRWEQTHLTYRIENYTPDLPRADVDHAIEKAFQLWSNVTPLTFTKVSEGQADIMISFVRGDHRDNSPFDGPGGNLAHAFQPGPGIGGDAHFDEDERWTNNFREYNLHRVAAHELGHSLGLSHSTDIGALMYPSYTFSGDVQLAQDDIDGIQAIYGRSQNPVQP
Description: (§5) MMP activity measurements were performed using an MMP Inhibitor Profiling Kit purchased from Enzo Life Science International, Inc. (Farmingdale, NY, USA), and following the manufacturer’s protocol with slight modifications. Proteolytic activity was measured using a thiopeptide substrate (Ac-PLG-[2-mercapto-4-methylpentanoyl]-LG-OC2H5) where the MMP cleavage site peptide bond has been replaced by a thioester bond. Hydrolysis of this bond by MMPs produces a sulfhydryl group that reacts with DTNB to form 2-nitro-5-thiobenzoic acid, which was detected by its absorbance at 414 nm (microplate photometer 90 Thermo Scientific Multiscan FC).
(§6) Enzyme reactions were carried out at 37 °C in a 100 μL final volume of solutions, where the catalytic domains of the corresponding MMP were incubated in triplicate with at least seven concentrations of inhibitors. The assay buffer contained the following components: 50 mM HEPES, 10 mM CaCl2 95, 0.05% Brij-35, and 1 mM DTNB at pH 7.5. After addition of the substrate, the increase of absorbance was recorded in 1 min time intervals for 30 min. Data were plotted as OD versus time for each sample to obtain the reaction velocity (V) in OD per min. The percentage of residual activity for each compound was calculated using the following formula: % of remaining activity = (V in the presence of inhibitor/Vcontrol) × 100. […]

MMP-3 = molecular target: T4, MMP-3 (Homo sapiens, UniProt P08254); assay: MMP inhibition assay (MMP Inhibitor Profiling Kit, thiopeptide substrate), MMP-3; assay type: biochemical; conditions: panel of MMPs
T4 construct: the catalytic domains of the corresponding MMP were incubated in triplicate; purchased Enzo Life Science International, Inc
T4 sequence (P08254 100-272 limits assumed): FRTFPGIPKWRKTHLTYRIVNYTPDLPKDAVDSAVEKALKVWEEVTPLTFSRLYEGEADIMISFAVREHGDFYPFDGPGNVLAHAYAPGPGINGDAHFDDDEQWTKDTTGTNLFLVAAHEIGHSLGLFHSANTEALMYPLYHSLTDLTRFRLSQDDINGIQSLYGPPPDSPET
Description: as §5, §6

MMP-8 = molecular target: T5, MMP-8 (Homo sapiens, UniProt P22894); assay: MMP inhibition assay (MMP Inhibitor Profiling Kit, thiopeptide substrate), MMP-8; assay type: biochemical; conditions: panel of MMPs
T5 construct: the catalytic domains of the corresponding MMP were incubated in triplicate; purchased Enzo Life Science International, Inc
T5 sequence (P22894 100-262 limits assumed): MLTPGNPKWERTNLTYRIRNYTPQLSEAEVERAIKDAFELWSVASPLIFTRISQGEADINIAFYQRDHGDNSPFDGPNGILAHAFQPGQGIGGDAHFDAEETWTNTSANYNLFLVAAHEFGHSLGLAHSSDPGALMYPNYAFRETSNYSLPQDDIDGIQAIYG
Description: as §5, §6

MMP-7 = molecular target: T6, MMP-7 (Homo sapiens, UniProt P09237); assay: MMP inhibition assay (MMP Inhibitor Profiling Kit, thiopeptide substrate), MMP-7; assay type: biochemical; conditions: panel of MMPs
T6 construct: the catalytic domains of the corresponding MMP were incubated in triplicate; purchased Enzo Life Science International, Inc
T6 sequence (P09237 95-267): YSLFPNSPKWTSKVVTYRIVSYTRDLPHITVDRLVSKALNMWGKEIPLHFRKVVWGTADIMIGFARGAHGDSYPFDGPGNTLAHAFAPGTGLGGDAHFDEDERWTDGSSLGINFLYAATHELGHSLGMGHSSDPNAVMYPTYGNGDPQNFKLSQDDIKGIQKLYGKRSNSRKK
Description: as §5, §6

MMP-2 [5] = molecular target: T2, MMP-2; assay: MMP inhibition assay (MMP Inhibitor Profiling Kit, thiopeptide substrate), MMP-2; assay type: biochemical; conditions: catalytic domain, 37 °C, pH 7.5
Description: as §5
Enzyme reactions were carried out at 37 °C in a 100 μL final volume of solutions, where the catalytic domains of the corresponding MMP were incubated in triplicate with at least seven concentrations of inhibitors. The assay buffer contained the following components: 50 mM HEPES, 10 mM CaCl2 95, 0.05% Brij-35, and 1 mM DTNB at pH 7.5. After addition of the substrate, the increase of absorbance was recorded in 1 min time intervals for 30 min. Data were plotted as OD versus time for each sample to obtain the reaction velocity (V) in OD per min. The percentage of residual activity for each compound was calculated using the following formula: % of remaining activity = (V in the presence of inhibitor/Vcontrol) × 100. An inhibitor, NNGH, was included as a prototypic control inhibitor. IC50 calculations in MMP-13 and MMP-2 for active compounds are shown in Supplementary Materials (Figure S9)
The concentration of the compound that provided 50% inhibition of enzymatic activity (IC50) was determined by using semi-logarithmic dose–response plots (Graph Pad Prism 5.0 for Windows, Graph Pad Software Inc., San Diego, CA, USA, 2007).

MMP-14 = molecular target: T7, MMP-14 (Homo sapiens, UniProt P50281); assay: MMP inhibition assay (MMP Inhibitor Profiling Kit, thiopeptide substrate), MMP-14; assay type: biochemical; conditions: panel of MMPs
T7 construct: the catalytic domains of the corresponding MMP were incubated in triplicate; purchased Enzo Life Science International, Inc
Description: as §5, §6

MMP-10 = molecular target: T8, MMP-10 (Homo sapiens, UniProt P09238); assay: MMP inhibition assay (MMP Inhibitor Profiling Kit, thiopeptide substrate), MMP-10; assay type: biochemical; conditions: panel of MMPs
T8 construct: the catalytic domains of the corresponding MMP were incubated in triplicate; purchased Enzo Life Science International, Inc
T8 sequence (P09238 99-263 limits assumed): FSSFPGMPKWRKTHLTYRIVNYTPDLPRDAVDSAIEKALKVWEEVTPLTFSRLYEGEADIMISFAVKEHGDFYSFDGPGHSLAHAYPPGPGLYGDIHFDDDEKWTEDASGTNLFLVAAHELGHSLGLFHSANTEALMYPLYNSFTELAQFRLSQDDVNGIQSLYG
Description: as §5, §6

MMP-9 = molecular target: T9, MMP-9 (Homo sapiens, UniProt P14780); assay: MMP inhibition assay (MMP Inhibitor Profiling Kit, thiopeptide substrate), MMP-9; assay type: biochemical; conditions: panel of MMPs
T9 construct: the catalytic domains of the corresponding MMP were incubated in triplicate; purchased Enzo Life Science International, Inc
T9 sequence (P14780 107-444 limits assumed): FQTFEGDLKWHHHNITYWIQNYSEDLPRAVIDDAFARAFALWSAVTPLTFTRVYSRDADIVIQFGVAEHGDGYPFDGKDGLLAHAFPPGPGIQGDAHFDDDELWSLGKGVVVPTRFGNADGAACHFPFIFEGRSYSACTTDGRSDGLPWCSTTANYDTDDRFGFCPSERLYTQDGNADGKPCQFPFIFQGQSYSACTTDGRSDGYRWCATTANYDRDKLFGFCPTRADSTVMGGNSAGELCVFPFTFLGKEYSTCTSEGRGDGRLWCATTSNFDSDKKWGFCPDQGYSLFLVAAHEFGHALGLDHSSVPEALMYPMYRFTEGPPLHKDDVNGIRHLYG
Description: as §5, §6

MMP-12 = molecular target: T10, MMP-12 (Homo sapiens, UniProt P39900); assay: MMP inhibition assay (MMP Inhibitor Profiling Kit, thiopeptide substrate), MMP-12; assay type: biochemical; conditions: panel of MMPs
T10 construct: the catalytic domains of the corresponding MMP were incubated in triplicate; purchased Enzo Life Science International, Inc
T10 sequence (P39900 106-263 limits assumed): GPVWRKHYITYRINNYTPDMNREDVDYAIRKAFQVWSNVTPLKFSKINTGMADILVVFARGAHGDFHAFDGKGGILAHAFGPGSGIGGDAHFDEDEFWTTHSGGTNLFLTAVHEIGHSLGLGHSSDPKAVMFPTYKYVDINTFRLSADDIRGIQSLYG
Description: as §5, §6

MMP-13 = molecular target: T11, MMP-13 (Homo sapiens, UniProt P45452); assay: MMP inhibition assay (MMP Inhibitor Profiling Kit, thiopeptide substrate), MMP-13; assay type: biochemical; conditions: catalytic domain, 37 °C, pH 7.5
T11 construct: the catalytic domains of the corresponding MMP were incubated in triplicate; purchased Enzo Life Science International, Inc
Description: as §5, with “Proteolytic activity was measured using a thiopeptide substrate (Ac-PLG-[2-mercapto-4-methylpentanoyl]-LG-OC2H5) where the MMP cleavage site peptide bond has been replaced by a thioester bond.” left out
The assay buffer contained the following components: 50 mM HEPES, 10 mM CaCl2 95, 0.05% Brij-35, and 1 mM DTNB at pH 7.5. After addition of the substrate, the increase of absorbance was recorded in 1 min time intervals for 30 min. Data were plotted as OD versus time for each sample to obtain the reaction velocity (V) in OD per min. The percentage of residual activity for each compound was calculated using the following formula: % of remaining activity = (V in the presence of inhibitor/Vcontrol) × 100. An inhibitor, NNGH, was included as a prototypic control inhibitor.

SMILES | solubility [4] [µM] | IC50 (MMP-2 [5]) [nM] | IC50 (MMP-13) [nM] | melting point | other results
O=C(NO)[C@@H](Cc1ccccc1)NS(=O)(=O)c1ccc(-c2ccccc2)cc1 [BiPS, (2R)-[(4-biphenylylsulfonyl)amino]-N-hydroxy-3-phenylpropionamide] |  |  |  |  | IC50 [1]: 2.06 nM; Interaction with the MMP-13 catalytic domain (WaterLOGSY) (MMP-13 catalytic domain): positive signals; IC50 [2]: 1.44 nM
O=C(NO)C1(S(=O)(=O)c2ccc(-n3cc(CCn4nc5c(Br)c(Br)c(Br)c(Br)c5n4)nn3)cc2)CCOCC1 [Compound 2] | 2.4 (≈ 1.95 µg/mL) |  |  |  | IC50 (MMP-2 [3]): 100 nM
O=C(NO)[C@@H](Cc1ccccc1)NS(=O)(=O)c1ccc(-n2cc(CCn3nc4ccccc4n3)nn2)cc1 [Compound 9a] | 9.77 (≈ 5.2 µg/mL) | 3.42 ± 1.15 |  |  | IC50 (MMP-1): > 1000 nM; IC50 (MMP-3): 31 ± 8 nM; IC50 (MMP-8): 100 ± 19 nM; IC50 (MMP-7): 47 ± 21 nM; IC50 (MMP-14): > 1000 nM; IC50 (MMP-10): 280 ± 22 nM; IC50 (MMP-9): 500 ± 74 nM; IC50 (MMP-12): 3.7 ± 2 nM
O=C(O)[C@@H](Cc1ccccc1)NS(=O)(=O)c1ccc(-n2cc(CCn3nc4ccccc4n3)nn2)cc1 [Compound 9b, (R)-2-(4-(4-(2-(2H-benzo[d][1–3]triazol-2-yl)ethyl)-1H-1,2,3-triazol-1-yl)phenylsulfonamido)-3-phenylpropanoic acid] |  | > 100 | > 100 | 246 °C (dec.) | 
O=C(O)[C@H](Cc1ccccc1)NS(=O)(=O)c1ccc(-n2cc(CCn3nc4ccccc4n3)nn2)cc1 [Compound 9c, (S)-2-(4-(4-(2-(2H-benzo[d][1–3]triazol-2-yl)ethyl)-1H-1,2,3-triazol-1-yl)phenylsulfonamido)-3-phenylpropanoic acid] |  | > 100 | > 100 | 227 to 228 °C | 
O=C(O)[C@@H](Cc1ccccc1)NS(=O)(=O)c1ccc(-n2cc(CCn3nc4c(Br)c(Br)c(Br)c(Br)c4n3)nn2)cc1 [Compound 9d, (R)-2-(4-(4-(2-(perbromo-2H-benzo[d][1–3]triazol-2-yl)ethyl)-1H-1,2,3-triazol-1-yl)phenylsulfonamido)-3-phenylpropanoic acid] |  | > 100 | > 100 | 127 to 130 °C | 
